Assay results reported in ChEMBL document CHEMBL4321812, “Structure-based rational design of staurosporine-based fluorescent probe with broad-ranging kinase affinity for kinase panel application” (Bioorg Med Chem Lett, 2019).

Key:
[1] = target: 3-phosphoinositide-dependent protein kinase 1 (Homo sapiens, UniProt O15530); test: Binding affinity to recombinant full-length N-terminal His-FLAG-GST-tagged PDPK1 (unknown origin) expressed in baculovirus infected Sf9 insect cells incubated for 1 hr by TR-FRET assay
[2] = target: Mitogen-activated protein kinase kinase kinase 11 (Homo sapiens, UniProt Q16584); test: Binding affinity to recombinant N-terminal His-FLAG-GST-tagged MAP3K11 (unknown origin) (99 to 398 residues) expressed in baculovirus infected Sf9 insect cells incubated for 1 hr by TR-FRET assay
[3] = target: AP2-associated protein kinase 1 (Homo sapiens, UniProt Q2M2I8); test: Binding affinity to recombinant full-length N-terminal His-FLAG-GST-tagged AAK1 (unknown origin) expressed in baculovirus infected Sf9 insect cells incubated for 1 hr by TR-FRET assay
[4] = target: Serine/threonine-protein kinase pim-1 (Homo sapiens, UniProt P11309); test: Binding affinity to recombinant human full-length N-terminal his-tagged PIM1 expressed in baculovirus expression system using S6K2 peptide as substrate incubated for 1 hr by TR-FRET assay
[5] = target: Serine/threonine-protein kinase ULK2 (Homo sapiens, UniProt Q8IYT8); test: Binding affinity to recombinant N-terminal His-FLAG-GST-tagged ULK2 (unknown origin) (1 to 478 residues) expressed in baculovirus infected Sf9 insect cells incubated for 1 hr by TR-FRET assay
[6] = target: Ribosomal protein S6 kinase beta-1 (Homo sapiens, UniProt P23443, T412E); test: Binding affinity to recombinant human full length N-terminal GST-tagged RPS6KB1 T412E mutant expressed in baculovirus expression system using S6K2 peptide as substrate incubated for 1 hr by TR-FRET assay
[7] = target: Mitogen-activated protein kinase kinase kinase kinase 2 (Homo sapiens, UniProt Q12851); test: Binding affinity to recombinant full-length N-terminal His-FLAG-GST-tagged MAP4K2 (unknown origin) expressed in baculovirus infected Sf9 insect cells incubated for 1 hr by TR-FRET assay
[8] = target: Mitogen-activated protein kinase kinase kinase 5 (Homo sapiens, UniProt Q99683); test: Binding affinity to recombinant full-length N-terminal His-FLAG-GST-tagged MAP3K5 (unknown origin) (654 to 971 residues) expressed in baculovirus infected Sf9 insect cells incubated for 1 hr by TR-FRET assay
[9] = target: Serine/threonine-protein kinase PAK 4 (Homo sapiens, UniProt O96013); test: Binding affinity to recombinant human full-length N-terminal GST-tagged PAK4 expressed in baculovirus expression system using SGKtide as substrate incubated for 1 hr by TR-FRET assay
[10] = target: Protein kinase C alpha type (Homo sapiens, UniProt P17252); test: Binding affinity to recombinant full-length N-terminal His-FLAG-GST-tagged PRKCA (unknown origin) expressed in baculovirus infected Sf9 insect cells incubated for 1 hr by TR-FRET assay
[11] = target: Tyrosine-protein kinase Fyn (Homo sapiens, UniProt P06241); test: Binding affinity to recombinant full-length N-terminal His-FLAG-tagged FYN (unknown origin) expressed in baculovirus infected Sf9 insect cells incubated for 1 hr by TR-FRET assay
[12] = target: Death-associated protein kinase 2 (Homo sapiens, UniProt Q9UIK4); test: Binding affinity to recombinant full-length N-terminal His-FLAG-GST-tagged DAPK2 (unknown origin) expressed in baculovirus infected Sf9 insect cells incubated for 1 hr by TR-FRET assay
[13] = target: Serine/threonine-protein kinase 33 (Homo sapiens, UniProt Q9BYT3); test: Binding affinity to recombinant full-length N-terminal His-FLAG-GST-tagged STK33 (unknown origin) expressed in baculovirus infected Sf9 insect cells incubated for 1 hr by TR-FRET assay
[14] = target: Dual specificity mitogen-activated protein kinase kinase 6 (Homo sapiens, UniProt P52564); test: Binding affinity to recombinant human full length N-terminal GST-tagged MAP2K6 expressed in baculovirus expression system using p38alpha (9 to 352 residues) as substrate incubated for 1 hr by TR-FRET assay
[15] = target: Tyrosine-protein kinase Mer (Homo sapiens, UniProt Q12866); test: Binding affinity to recombinant full-length N-terminal His-FLAG-GST-tagged MERTK (unknown origin) (528 to 999 residues) expressed in baculovirus infected Sf9 insect cells incubated for 1 hr by TR-FRET assay
[16] = target: Serine/threonine-protein kinase 26 (Homo sapiens, UniProt Q9P289); test: Binding affinity to recombinant full-length N-terminal His-FLAG-tagged MST4 (unknown origin) expressed in baculovirus infected Sf9 insect cells incubated for 1 hr by TR-FRET assay
[17] = target: Calcium/calmodulin-dependent protein kinase type II subunit gamma (Homo sapiens, UniProt Q13555); test: Binding affinity to recombinant full-length N-terminal His-FLAG-GST-tagged CAMK2G (unknown origin) expressed in baculovirus infected Sf9 insect cells incubated for 1 hr in presence of calmodulin by TR-FRET assay
[18] = target: Rhodopsin kinase GRK1 (Homo sapiens, UniProt Q15835); test: Binding affinity to recombinant full-length N-terminal His-FLAG-GST-tagged GRK1 (unknown origin) expressed in baculovirus infected Sf9 insect cells incubated for 1 hr by TR-FRET assay
[19] = target: Inhibitor of nuclear factor kappa-B kinase subunit epsilon (Homo sapiens, UniProt Q14164); test: Binding affinity to recombinant full-length N-terminal His-FLAG-GST-tagged IKBKE (unknown origin) expressed in baculovirus infected Sf9 insect cells incubated for 1 hr by TR-FRET assay
[20] = target: Platelet-derived growth factor receptor beta (Homo sapiens, UniProt P09619); test: Binding affinity to recombinant human N-terminal his-tagged PDGFRB (558 to 1106 residues) expressed in baculovirus expression system incubated for 1 hr by TR-FRET assay
[21] = target: MAP kinase-interacting serine/threonine-protein kinase 2 (Homo sapiens, UniProt Q9HBH9); test: Binding affinity to recombinant human full-length N-terminal GST-tagged MKNK2 expressed in baculovirus expression system using RS peptide as substrate incubated for 1 hr by TR-FRET assay
[22] = target: Aurora kinase A (Homo sapiens, UniProt O14965); test: Binding affinity to recombinant full-length N-terminal His-FLAG-GST-tagged AURKA (unknown origin) expressed in baculovirus infected Sf9 insect cells incubated for 1 hr by TR-FRET assay
[23] = target: Serine/threonine-protein kinase 25 (Homo sapiens, UniProt O00506); test: Binding affinity to recombinant full-length N-terminal His-FLAG-GST-tagged STK25 (unknown origin) expressed in baculovirus infected Sf9 insect cells incubated for 1 hr by TR-FRET assay
[24] = target: Protein-tyrosine kinase 2-beta (Homo sapiens, UniProt Q14289); test: Binding affinity to recombinant full-length N-terminal His-FLAG-tagged PTK2B (unknown origin) expressed in baculovirus infected Sf9 insect cells incubated for 1 hr by TR-FRET assay
[25] = target: Proto-oncogene tyrosine-protein kinase Src (Homo sapiens, UniProt P12931); test: Binding affinity to recombinant full-length N-terminal His-FLAG-GST-tagged SRC (unknown origin) expressed in baculovirus infected Sf9 insect cells incubated for 1 hr by TR-FRET assay

Chain of Aurora kinase A (O14965 whole entry): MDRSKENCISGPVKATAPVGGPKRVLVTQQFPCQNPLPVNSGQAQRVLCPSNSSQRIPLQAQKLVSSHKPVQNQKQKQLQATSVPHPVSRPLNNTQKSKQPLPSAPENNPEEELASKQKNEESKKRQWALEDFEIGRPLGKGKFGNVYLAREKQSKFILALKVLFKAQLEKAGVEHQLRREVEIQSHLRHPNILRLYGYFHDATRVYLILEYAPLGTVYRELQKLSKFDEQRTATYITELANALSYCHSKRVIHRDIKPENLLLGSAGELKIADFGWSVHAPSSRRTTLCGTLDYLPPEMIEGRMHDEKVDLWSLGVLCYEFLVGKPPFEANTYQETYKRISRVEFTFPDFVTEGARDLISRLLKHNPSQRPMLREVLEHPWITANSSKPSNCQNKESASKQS
Chain of Serine/threonine-protein kinase PAK 4 (O96013 whole entry): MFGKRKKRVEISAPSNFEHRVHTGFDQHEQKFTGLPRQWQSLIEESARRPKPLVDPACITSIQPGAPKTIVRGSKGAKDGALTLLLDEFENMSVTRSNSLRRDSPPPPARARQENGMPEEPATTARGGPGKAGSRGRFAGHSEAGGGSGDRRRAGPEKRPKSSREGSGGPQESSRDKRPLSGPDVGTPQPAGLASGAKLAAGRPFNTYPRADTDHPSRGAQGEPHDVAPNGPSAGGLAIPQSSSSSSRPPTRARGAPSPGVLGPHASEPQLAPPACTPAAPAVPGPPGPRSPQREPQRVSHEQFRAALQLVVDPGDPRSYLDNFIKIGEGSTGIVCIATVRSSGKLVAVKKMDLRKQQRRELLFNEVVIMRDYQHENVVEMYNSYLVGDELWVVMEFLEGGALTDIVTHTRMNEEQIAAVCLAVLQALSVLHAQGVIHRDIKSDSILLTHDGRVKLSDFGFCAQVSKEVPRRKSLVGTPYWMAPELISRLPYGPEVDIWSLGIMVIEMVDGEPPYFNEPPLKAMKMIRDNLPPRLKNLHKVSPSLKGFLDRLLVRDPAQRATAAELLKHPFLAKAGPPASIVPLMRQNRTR
Chain of Calcium/calmodulin-dependent protein kinase type II subunit gamma (Q13555 whole entry): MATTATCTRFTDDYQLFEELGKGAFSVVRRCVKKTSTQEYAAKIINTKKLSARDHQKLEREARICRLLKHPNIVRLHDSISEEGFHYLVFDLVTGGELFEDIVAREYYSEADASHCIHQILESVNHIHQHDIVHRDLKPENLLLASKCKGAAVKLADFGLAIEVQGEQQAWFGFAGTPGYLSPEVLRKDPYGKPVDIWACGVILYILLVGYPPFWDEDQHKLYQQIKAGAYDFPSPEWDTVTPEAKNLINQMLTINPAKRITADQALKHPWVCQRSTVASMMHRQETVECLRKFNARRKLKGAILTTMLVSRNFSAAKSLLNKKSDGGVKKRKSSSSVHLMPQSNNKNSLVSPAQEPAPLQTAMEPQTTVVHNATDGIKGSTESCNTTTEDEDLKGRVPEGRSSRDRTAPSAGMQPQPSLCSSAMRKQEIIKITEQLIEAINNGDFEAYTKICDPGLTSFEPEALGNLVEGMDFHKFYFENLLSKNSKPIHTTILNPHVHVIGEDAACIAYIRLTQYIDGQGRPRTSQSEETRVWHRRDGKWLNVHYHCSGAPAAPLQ
Chain of Serine/threonine-protein kinase 25 (O00506 whole entry): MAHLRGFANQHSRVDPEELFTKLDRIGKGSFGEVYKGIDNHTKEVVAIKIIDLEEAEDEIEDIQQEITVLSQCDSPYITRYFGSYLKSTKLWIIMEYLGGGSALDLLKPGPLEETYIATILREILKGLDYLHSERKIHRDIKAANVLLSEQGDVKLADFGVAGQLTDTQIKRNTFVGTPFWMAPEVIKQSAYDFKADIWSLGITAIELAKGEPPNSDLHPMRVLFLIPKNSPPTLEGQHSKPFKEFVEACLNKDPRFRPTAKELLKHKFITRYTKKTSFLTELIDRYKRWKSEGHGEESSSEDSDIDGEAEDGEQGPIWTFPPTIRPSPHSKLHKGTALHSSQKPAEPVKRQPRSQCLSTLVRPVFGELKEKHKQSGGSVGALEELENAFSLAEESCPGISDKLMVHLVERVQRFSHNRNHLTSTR
Chain of Mitogen-activated protein kinase kinase kinase kinase 2 (Q12851 whole entry, the tested form may be a part): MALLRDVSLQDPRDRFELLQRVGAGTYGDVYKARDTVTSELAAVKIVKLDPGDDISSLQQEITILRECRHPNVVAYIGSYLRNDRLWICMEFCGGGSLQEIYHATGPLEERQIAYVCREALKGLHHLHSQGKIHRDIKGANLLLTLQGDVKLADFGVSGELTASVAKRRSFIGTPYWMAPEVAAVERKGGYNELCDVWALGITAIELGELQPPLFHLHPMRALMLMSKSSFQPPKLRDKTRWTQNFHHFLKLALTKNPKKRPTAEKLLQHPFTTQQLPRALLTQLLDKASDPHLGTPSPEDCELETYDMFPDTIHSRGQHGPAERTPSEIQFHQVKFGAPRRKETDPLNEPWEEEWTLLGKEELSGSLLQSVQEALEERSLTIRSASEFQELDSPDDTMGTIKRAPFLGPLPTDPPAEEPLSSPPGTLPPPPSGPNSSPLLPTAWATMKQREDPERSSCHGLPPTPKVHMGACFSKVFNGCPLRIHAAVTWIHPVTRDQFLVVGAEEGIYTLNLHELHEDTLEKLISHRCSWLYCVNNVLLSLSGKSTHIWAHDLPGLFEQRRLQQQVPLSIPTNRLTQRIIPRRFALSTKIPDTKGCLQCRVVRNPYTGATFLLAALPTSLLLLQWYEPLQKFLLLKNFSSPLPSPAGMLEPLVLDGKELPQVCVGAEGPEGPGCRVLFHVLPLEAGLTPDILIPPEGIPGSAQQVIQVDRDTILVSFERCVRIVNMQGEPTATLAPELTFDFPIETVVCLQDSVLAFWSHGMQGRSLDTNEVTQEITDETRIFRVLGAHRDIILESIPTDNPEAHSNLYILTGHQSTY
Chain of Dual specificity mitogen-activated protein kinase kinase 6 (P52564 whole entry, the tested form may be a part): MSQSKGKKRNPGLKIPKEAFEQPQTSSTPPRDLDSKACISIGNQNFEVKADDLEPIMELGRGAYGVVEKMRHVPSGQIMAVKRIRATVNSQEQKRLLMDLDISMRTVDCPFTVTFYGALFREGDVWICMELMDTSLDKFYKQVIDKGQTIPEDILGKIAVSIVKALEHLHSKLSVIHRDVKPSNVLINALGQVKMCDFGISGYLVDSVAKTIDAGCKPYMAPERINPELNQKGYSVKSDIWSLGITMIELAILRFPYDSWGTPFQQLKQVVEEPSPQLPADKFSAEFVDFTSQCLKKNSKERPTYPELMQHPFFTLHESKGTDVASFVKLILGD
Chain of Protein-tyrosine kinase 2-beta (Q14289 whole entry): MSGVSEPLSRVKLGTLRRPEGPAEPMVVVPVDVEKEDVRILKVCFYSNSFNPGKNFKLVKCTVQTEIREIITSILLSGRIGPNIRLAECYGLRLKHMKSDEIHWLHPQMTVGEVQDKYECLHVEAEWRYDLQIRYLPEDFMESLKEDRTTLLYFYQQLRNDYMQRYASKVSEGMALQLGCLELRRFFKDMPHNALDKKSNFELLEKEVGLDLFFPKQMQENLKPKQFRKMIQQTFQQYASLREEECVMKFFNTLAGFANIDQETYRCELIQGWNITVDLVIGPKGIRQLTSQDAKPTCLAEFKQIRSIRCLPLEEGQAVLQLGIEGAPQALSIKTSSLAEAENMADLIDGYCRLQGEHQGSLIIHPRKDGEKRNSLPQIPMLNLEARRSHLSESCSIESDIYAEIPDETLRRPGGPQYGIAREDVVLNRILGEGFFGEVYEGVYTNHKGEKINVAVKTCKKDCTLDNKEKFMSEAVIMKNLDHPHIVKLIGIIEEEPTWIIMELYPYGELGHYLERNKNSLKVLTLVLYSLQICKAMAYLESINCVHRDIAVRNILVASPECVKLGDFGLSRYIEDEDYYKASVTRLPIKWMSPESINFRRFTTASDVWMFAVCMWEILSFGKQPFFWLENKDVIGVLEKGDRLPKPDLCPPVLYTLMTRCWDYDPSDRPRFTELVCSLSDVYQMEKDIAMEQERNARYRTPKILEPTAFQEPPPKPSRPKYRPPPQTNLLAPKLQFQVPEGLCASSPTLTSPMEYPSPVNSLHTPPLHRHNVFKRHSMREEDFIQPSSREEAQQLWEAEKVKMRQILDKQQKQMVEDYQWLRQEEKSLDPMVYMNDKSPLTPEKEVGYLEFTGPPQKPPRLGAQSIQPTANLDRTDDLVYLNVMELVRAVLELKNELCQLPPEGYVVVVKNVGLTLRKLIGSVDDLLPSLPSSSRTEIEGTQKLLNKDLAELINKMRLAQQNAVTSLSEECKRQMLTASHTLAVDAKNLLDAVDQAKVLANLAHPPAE
Chain of MAP kinase-interacting serine/threonine-protein kinase 2 (Q9HBH9 whole entry): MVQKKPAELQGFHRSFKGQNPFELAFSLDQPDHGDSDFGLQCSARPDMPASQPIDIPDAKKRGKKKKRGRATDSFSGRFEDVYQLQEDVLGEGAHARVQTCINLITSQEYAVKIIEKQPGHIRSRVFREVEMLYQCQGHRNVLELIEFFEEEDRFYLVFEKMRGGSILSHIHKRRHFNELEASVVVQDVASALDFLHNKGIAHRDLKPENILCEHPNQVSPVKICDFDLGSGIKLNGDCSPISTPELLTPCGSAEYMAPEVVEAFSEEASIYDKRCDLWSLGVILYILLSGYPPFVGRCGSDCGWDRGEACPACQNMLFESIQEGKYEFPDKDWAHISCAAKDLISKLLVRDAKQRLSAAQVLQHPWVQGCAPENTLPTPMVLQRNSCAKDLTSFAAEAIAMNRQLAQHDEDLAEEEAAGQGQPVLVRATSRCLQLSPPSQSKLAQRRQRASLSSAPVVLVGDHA
Chain of Death-associated protein kinase 2 (Q9UIK4 whole entry): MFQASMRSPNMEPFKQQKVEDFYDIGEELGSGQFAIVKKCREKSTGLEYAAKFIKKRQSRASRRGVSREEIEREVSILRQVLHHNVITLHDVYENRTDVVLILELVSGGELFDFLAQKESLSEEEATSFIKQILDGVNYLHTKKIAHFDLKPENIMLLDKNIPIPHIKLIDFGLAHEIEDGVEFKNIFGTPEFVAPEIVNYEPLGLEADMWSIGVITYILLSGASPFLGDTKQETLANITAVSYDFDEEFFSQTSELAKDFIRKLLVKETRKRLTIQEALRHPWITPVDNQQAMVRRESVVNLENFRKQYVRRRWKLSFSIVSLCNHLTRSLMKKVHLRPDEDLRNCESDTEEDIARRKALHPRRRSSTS

| SMILES | Kd [1] [nM] | Kd [2] [nM] | Kd [3] [nM] | Kd [4] [nM] | Kd [5] [nM] | Kd [6] [nM] | Kd [7] [nM] | Kd [8] [nM] | Kd [9] [nM] | Kd [10] [nM] | Kd [11] [nM] | Kd [12] [nM] | Kd [13] [nM] | Kd [14] [nM] | Kd [15] [nM] | Kd [16] [nM] | Kd [17] [nM] | Kd [18] [nM] | Kd [19] [nM] | Kd [20] [nM] | also measured |
| --- | --- | --- | --- | --- | --- | --- | --- | --- | --- | --- | --- | --- | --- | --- | --- | --- | --- | --- | --- | --- | --- |
| CO[C@@H]1[C@H](N(C)CCOCCOCCOCCNC(=O)CCC2=[N+]3C(=Cc4c(C)cc(C)n4[B-]3(F)F)C=C2)C[C@H]2O[C@]1(C)n1c3ccccc3c3c4c(c5c6ccccc6n2c5c31)C(=O)NC4 | 8 | 4 | 5 | 285 | 61 | 13 | 7 | 248 | 6 | 43 | 322 | 60 | 6 | 16 | 108 | 983 | 9 | 109 | 44 | 257 | Kd [21]: 205 nM; Kd [22]: 51 nM; Kd [23]: 443 nM; Kd [24]: 73 nM; Kd [25]: 572 nM |
| CO[C@@H]1[C@H](NCCOCCOCCOCCNC(=O)CCC2=[N+]3C(=Cc4c(C)cc(C)n4[B-]3(F)F)C=C2)C[C@H]2O[C@]1(C)n1c3ccccc3c3c4c(c5c6ccccc6n2c5c31)C(=O)NC4 | 8 | 3 | 6 | 207 | 30 | 40 | 6 | 136 | 5 | 92 | 267 | 34 | 8 | 28 | 107 | 687 | 8 | 122 | 58 | 165 | Kd [21]: 162 nM; Kd [22]: 45 nM; Kd [23]: 444 nM; Kd [24]: 59 nM; Kd [25]: 452 nM |
